A word on the inhibition: it is the share of the control response that was lost under treatment. Broadly, the EC50 is the concentration needed to bring the measured effect to its halfway point.

Results on one compound are retold here after ChEMBL document CHEMBL1212695, “An allosteric potentiator of M4 mAChR modulates hippocampal synaptic transmission” (Nat Chem Biol, 2008).

Activity calls are given as the source filed them. The calls are words filed in the database; no cut-off is given here.

Assay [1] concerns the target T1, Muscarinic acetylcholine receptor M4 (Rattus norvegicus) (UniProt P08485).
T1 sequence (whole entry): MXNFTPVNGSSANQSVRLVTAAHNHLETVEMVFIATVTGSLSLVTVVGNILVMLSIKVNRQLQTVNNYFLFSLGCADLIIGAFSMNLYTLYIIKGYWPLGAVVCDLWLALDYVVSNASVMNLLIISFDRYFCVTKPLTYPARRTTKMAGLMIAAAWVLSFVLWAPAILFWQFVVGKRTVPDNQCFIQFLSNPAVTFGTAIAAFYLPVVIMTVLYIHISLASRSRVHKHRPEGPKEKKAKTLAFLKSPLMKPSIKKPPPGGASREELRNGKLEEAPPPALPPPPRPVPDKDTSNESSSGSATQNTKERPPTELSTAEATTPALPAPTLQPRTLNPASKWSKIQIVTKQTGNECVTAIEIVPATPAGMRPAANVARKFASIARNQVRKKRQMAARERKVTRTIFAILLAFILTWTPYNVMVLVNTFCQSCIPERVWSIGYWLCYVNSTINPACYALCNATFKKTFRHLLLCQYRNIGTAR
The assay can be described thus: Agonist activity at muscarinic M4 receptor in Sprague-Dawley rat hippocampal CA1 pyramidal neuron assessed as reduction of inhibitory postsynaptic current at 5 uM by whole-cell electrophysiology in presence of carbachol relative to control. Type of assay: functional, tissue-based. The following applies: Hippocampus.

For assay [2], the target named is T1, Muscarinic acetylcholine receptor M4 (Rattus norvegicus). The assay can be described thus: Displacement of [3H]NMS from rat recombinant muscarinic M4 receptor expressed in CHO cells up to 30 uM after 2 hrs by microplate scintillation counting. The assay is classed as cell-based. For orientation: Displacement assays read how much labelled ligand stays bound in the presence of the test substance.

For assay [3], the target named is T2, Muscarinic acetylcholine receptor M2 (Rattus norvegicus) (UniProt P10980).
T2 sequence (whole entry): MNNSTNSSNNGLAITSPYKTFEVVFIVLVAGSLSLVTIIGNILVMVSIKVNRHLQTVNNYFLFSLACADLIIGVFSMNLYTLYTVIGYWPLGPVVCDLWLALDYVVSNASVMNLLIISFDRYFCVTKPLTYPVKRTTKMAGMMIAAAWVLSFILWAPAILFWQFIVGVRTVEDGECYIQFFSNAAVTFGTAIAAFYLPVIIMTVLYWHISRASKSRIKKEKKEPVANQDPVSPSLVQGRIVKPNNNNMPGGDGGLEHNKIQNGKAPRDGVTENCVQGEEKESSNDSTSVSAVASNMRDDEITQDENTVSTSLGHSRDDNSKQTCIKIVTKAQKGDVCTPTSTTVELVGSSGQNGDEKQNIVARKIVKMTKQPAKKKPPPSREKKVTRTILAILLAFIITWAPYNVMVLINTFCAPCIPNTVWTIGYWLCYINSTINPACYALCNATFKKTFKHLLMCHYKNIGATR
Kind of assay: Allosteric activation of rat recombinant muscarinic M2 receptor expressed in CHO cells assessed as potentiation of acetylcholine-induced calcium mobilization at 10 uM after 1 hr by fluorescence assay. Type of assay: functional, cell-based. (Calcium flux is commonly read through the fluorescence of an indicator in the cells.)

Assay [4] addresses T1, Muscarinic acetylcholine receptor M4 (Rattus norvegicus). The assay can be described thus: Allosteric activation of rat recombinant muscarinic M4 receptor expressed in CHO cells assessed as fold decrease in acetylcholine Ki for displacement of [3H]NMS from active binding site at 10 uM after 2 hrs by microplate scintillation counting. Type of assay: cell-based.
Assay [5] deals with Muscarinic acetylcholine receptor M3 (Rattus norvegicus) (UniProt P08483). The assay can be described thus: Allosteric activation of rat recombinant muscarinic M3 receptor expressed in CHO cells assessed as potentiation of acetylcholine-induced calcium mobilization at 10 uM after 1 hr by fluorescence assay. Type of assay: functional, cell-based.
Assay [6] concerns the target T1, Muscarinic acetylcholine receptor M4 (Rattus norvegicus). Kind of assay: Agonist activity at muscarinic M4 receptor in Sprague-Dawley rat hippocampal CA1 pyramidal neuron assessed as reduction of excitatory postsynaptic current at 1 uM by whole-cell electrophysiology relative to control. Type of assay: functional, tissue-based. Also on record: scale not given: the % may be the effect or the level left. As to conditions: Hippocampus.

The target of assay [7] is T3, Muscarinic acetylcholine receptor M4 (Rattus norvegicus, UniProt P08485).
T3 sequence (P08485 whole entry): T1 sequence (whole entry)
Kind of assay: Allosteric activation of rat recombinant muscarinic M4 receptor expressed in CHO cells assessed as potentiation of 10 uM acetylcholine-induced calcium mobilization after 1 hr by fluorescence assay. Type of assay: functional, cell-based.

Assay [8] can be described thus: Agonist activity at muscarinic receptor in M4 receptor knock out mouse hippocampal CA1 pyramidal neuron assessed as reduction of excitatory postsynaptic current amplitude at 5 uM by whole-cell electrophysiology in presence of carbachol relative to control. The following applies: Hippocampus. The assay is classed as functional.
Another assay relates to CHO. Kind of assay: Antagonist activity at P2Y1 receptor in CHO cells assessed as calcium mobilization at 10 uM after 1 hr by fluorescence assay. As to conditions: Cricetulus griseus. The assay is classed as functional, cell-based.
Assay [9] is described as follows: Agonist activity at muscarinic receptor in M4 receptor knock out mouse hippocampal CA1 pyramidal neuron assessed as reduction of excitatory postsynaptic current amplitude at 100 uM by whole-cell electrophysiology relative to control. Type of assay: functional. The following applies: Hippocampus.
The target in assay [10] is T4, Muscarinic acetylcholine receptor M4 (Mus musculus) (UniProt P32211).
T4 sequence (whole entry): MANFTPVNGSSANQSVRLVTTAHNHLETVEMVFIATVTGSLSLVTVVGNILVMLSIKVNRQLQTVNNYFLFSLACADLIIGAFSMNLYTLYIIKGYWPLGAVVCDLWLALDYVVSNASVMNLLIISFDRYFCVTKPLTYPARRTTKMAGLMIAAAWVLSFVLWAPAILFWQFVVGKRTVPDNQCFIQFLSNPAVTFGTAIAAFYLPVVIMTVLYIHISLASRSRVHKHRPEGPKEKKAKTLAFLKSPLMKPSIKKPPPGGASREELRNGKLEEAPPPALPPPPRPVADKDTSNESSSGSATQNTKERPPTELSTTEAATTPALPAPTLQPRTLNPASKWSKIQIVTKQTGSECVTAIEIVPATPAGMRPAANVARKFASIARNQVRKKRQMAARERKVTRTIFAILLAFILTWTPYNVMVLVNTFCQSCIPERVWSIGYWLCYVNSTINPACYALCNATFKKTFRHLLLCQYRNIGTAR
The assay can be described thus: Agonist activity at muscarinic M4 receptor in wild type mouse hippocampal CA1 pyramidal neuron assessed as reduction of excitatory postsynaptic current at 100 uM by whole-cell electrophysiology relative to control. As to conditions: Hippocampus. Type of assay: functional, tissue-based.

For assay [11], the target named is T1, Muscarinic acetylcholine receptor M4 (Rattus norvegicus). The assay can be described thus: Agonist activity at muscarinic M4 receptor in Sprague-Dawley rat hippocampal CA1 pyramidal neuron assessed as reversible inhibition of excitatory postsynaptic current by whole-cell electrophysiology. The following applies: Hippocampus. The assay is classed as functional, tissue-based.

Assay [12] shares this target. Kind of assay: Agonist activity at muscarinic M4 receptor in Sprague-Dawley rat hippocampal CA1 pyramidal neuron assessed as reduction of excitatory postsynaptic current at 100 uM by whole-cell electrophysiology relative to control. The following applies: Hippocampus. Type of assay: functional, tissue-based.
Assay [13] has the same target. The assay can be described thus: Allosteric activation of rat recombinant muscarinic M4 receptor expressed in CHO cells assessed as […] in acetylcholine EC50 for induction of calcium mobilization at 10 uM after 1 hr by fluorescence assay. The assay is classed as functional, cell-based.
Assay [14] has as its target T4, Muscarinic acetylcholine receptor M4 (Mus musculus). The assay can be described thus: Agonist activity at muscarinic M4 receptor in wild type mouse hippocampal CA1 pyramidal neuron assessed as reduction of inhibitory postsynaptic current amplitude at 2 uM by whole-cell electrophysiology relative to control. The assay is classed as functional, tissue-based. The following applies: Hippocampus.

Assay [15] has the same target. Kind of assay: Agonist activity at muscarinic M4 receptor in wild type mouse hippocampal CA1 pyramidal neuron assessed as reduction of excitatory postsynaptic current at 2 uM by whole-cell electrophysiology relative to control. Type of assay: functional, tissue-based. The following applies: Hippocampus.

Muscarinic acetylcholine receptor M3 (Rattus norvegicus), sequence (P08483 whole entry, looked up): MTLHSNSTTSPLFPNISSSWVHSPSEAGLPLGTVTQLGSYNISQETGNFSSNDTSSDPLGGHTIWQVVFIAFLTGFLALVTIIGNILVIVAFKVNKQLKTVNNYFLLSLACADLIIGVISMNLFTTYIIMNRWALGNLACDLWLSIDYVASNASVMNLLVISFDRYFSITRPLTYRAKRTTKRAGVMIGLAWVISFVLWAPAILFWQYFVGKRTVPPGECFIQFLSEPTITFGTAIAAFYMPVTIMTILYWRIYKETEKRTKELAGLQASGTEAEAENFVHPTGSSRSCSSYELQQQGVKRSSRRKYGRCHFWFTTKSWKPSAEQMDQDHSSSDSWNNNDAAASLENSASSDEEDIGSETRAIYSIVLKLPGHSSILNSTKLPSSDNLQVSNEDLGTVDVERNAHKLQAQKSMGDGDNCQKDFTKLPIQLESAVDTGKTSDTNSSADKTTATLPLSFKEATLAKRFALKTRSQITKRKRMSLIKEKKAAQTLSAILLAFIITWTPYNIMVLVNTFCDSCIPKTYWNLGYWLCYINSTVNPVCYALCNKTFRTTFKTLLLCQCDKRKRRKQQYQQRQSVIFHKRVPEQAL

In the case of `Cc1cc(C)c2c(N)c(C(=O)NCc3ccc(Cl)cc3)sc2n1`, the inhibition turned out to be 61.7% in assay [1]; 18% in assay [10]; 16.1% in assay [12]; 56% in assay [14]; 53.7% in assay [15]. In addition, the result (in [2]; in assay [3]; in [5]; in the assay on CHO) was inactive. The values for the fold change (FC) in assay [4] and in assay [13] were 14 and 47, respectively. The Activity in assay [6] is 60.5%; in [11], “Dose-dependent effect”. Also, the EC50 in assay [7] amounted to 400 nM. The inhibition at 5 µM in assay [8] turned out to be 77.5%. In addition, the inhibition at 100 µM in [9] worked out at 21.1%.
